Laboratory results reported in publication PMC6858373 (Scientific Reports, 2019).
Where two headings read alike, the source gives them in different places.

Key:
[1] = target: T1, FGF14:Nav1.6 C-tail complex (Homo sapiens, UniProt Q92915+Q9UQD0); assay: Split-luciferase complementation assay (LCA) in Clone V double stable HEK293 cells; format: cell-based; conditions: for Split Luciferase Assay % Lum Set 1 / Split Luciferase Assay Z-score Set 1: biological replicate Set 1; for Split Luciferase Assay % Lum Set 1 / Split Luciferase Assay %Lum Set 2: normalized to on-plate 0.3% DMSO controls (n=16 per plate); for Split Luciferase Assay %Lum Set 2 / Split Luciferase Assay Z-score Set 2: biological replicate Set 2; for Split Luciferase Assay Z-score Set 1 / Split Luciferase Assay Z-score Set 2: normalized to on-plate 0.3% DMSO controls; for Split Luciferase Assay %Lum Avg: average of Set 1 and Set 2, normalized to 0.3% DMSO controls; for signal-background (S:B) ratio: 50 ng/mL TNF-α vs 0.3% DMSO, n = 16
T1 construct: polymerase chain reaction (PCR) amplification of the FGF14 open reading frame (nt 1–855); C-terminal fragment of Nav1.6 (amino acids 1763–1976) fused with CD4ΔC-tail (amino acids 1–395); expressed in transfected cells

[2] = target: full-length P. pyralis luciferase (Photinus pyralis, UniProt P08659, K549A/L550V/N119G/N50D/S548I); format: cell-based; conditions: for Luciferase Assay % Lum: full-length luciferase counter-screen luminescence; for Luciferase Assay Z-score: full-length luciferase counter-screen
Clone V cells [3] = assay: CellTiter Blue (CTB) cell viability counter-screen; conditions: CC_NCI screening, normalized to on-plate 0.3% DMSO controls; for Toxicity Assay % Fluor: CTB cell viability fluorescence; for Toxicity Assay Z-score: CTB cell viability
Clone V cells [4] = tested on: Clone V cells
[5] = CC_NCI screening, LCA luminescence
[6] = CC_NCI screening, normalized to on-plate 0.3% DMSO controls

Chain of full-length P. pyralis luciferase (P08659 whole entry N50D/N119G/S548I/K549A/L550V, looked up): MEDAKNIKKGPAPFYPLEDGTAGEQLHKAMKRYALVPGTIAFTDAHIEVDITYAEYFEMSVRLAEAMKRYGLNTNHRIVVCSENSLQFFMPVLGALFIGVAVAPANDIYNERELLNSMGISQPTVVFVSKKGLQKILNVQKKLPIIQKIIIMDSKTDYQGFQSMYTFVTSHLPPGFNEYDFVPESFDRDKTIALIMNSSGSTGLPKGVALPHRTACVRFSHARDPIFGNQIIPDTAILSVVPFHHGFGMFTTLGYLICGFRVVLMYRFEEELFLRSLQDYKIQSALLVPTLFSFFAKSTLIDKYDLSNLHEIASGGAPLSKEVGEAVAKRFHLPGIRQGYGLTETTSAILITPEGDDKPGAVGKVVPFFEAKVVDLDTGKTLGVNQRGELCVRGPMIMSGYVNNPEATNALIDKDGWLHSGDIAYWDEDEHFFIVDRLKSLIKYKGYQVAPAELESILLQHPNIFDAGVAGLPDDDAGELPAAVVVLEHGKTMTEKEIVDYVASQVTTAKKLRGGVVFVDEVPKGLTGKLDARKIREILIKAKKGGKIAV
T1 sequence (Q92915 1-252 isoform Q92915-2): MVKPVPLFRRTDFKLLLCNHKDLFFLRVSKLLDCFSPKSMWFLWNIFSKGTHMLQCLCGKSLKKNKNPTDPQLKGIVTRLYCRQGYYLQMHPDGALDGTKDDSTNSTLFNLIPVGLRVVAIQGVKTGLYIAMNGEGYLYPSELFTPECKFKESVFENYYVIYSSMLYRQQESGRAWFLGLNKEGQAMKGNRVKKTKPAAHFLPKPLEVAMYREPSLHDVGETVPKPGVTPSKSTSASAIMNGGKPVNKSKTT
T1 sequence (Q9UQD0 1763-1976 limits assumed): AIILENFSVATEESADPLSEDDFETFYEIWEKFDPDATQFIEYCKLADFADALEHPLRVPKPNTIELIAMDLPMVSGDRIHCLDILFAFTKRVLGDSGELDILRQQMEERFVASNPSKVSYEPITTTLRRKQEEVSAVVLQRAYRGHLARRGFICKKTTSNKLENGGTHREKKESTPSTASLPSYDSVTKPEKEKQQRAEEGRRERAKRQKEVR

Compound | Split Luciferase Assay % Lum Set 1 [1, 5] [%] | Split Luciferase Assay %Lum Set 2 [1, 5] [%] | Split Luciferase Assay Z-score Set 1 ([1]; CC_NCI screening, LCA) | Split Luciferase Assay Z-score Set 2 ([1]; CC_NCI screening, LCA) | Split Luciferase Assay %Lum Avg ([1]; CC_NCI screening) [%] | Luciferase Assay % Lum [2, 6] [%] | Luciferase Assay Z-score [2, 6] | Toxicity Assay % Fluor (Clone V cells [3]) [%] | Toxicity Assay Z-score (Clone V cells [3]) | other results
Cc1ccc(F)c(NC(=O)Nc2ccc(-c3cccc4[nH]nc(N)c34)cc2)c1 [ABT-869] | 14.46 | 21.85 | -6.91 | -6.36 | 18.15 | 60.04 | -5.12 | 87.41 | -1.76 | –
C[C@]1(c2nc3c(C(N)=O)cccc3[nH]2)CCCN1 [ABT-888] | 75.34 | 93.63 | -1.99 | -0.52 | 84.48 | 105.22 | 0.67 | 107.03 | 0.98 | –
CN1CCN(CCOc2cc(OC3CCOCC3)c3c(Nc4c(Cl)ccc5c4OCO5)ncnc3c2)CC1 [AZD 0530] | 36.20 | 60.34 | -5.16 | -3.23 | 48.27 | 98.71 | -0.17 | 89.05 | -1.53 | –
O=C(c1cc(Cc2n[nH]c(=O)c3ccccc23)ccc1F)N1CCN(C(=O)C2CC2)CC1 [AZD 2281] | 117.73 | 92.59 | 1.43 | -0.60 | 105.16 | 105.07 | 0.65 | 93.24 | -0.94 | –
Cn1cnc2c(F)c(Nc3ccc(Br)cc3Cl)c(C(=O)NOCCO)cc21 [AZD 6244] | 100.34 | 90.51 | 0.03 | -0.77 | 95.42 | 96.05 | -0.51 | 108.13 | 1.14 | –
CN(C)C/C=C/C(=O)Nc1cc2c(Nc3ccc(F)c(Cl)c3)ncnc2cc1O[C@H]1CCOC1 [Afatinib] | 72.08 | 61.38 | -2.26 | -3.14 | 66.73 | 73.64 | -3.38 | 82.04 | -2.51 | –
CN(C)C/C=C/C(=O)Nc1cc2c(Nc3ccc(F)c(Cl)c3)ncnc2cc1O[C@H]1CCOC1 [BIBW2992] | 70.99 | 94.67 | -2.34 | -0.43 | 82.83 | 76.41 | -3.02 | 100.79 | 0.11 | –
Cc1c(NC(=O)OC[C@@H]2COCCN2)cn2ncnc(Nc3ccc4c(cnn4Cc4cccc(F)c4)c3)c12 [BMS-599626] | 38.37 | 50.98 | -4.98 | -3.99 | 44.68 | 83.05 | -2.17 | 101.94 | 0.27 | –
COc1cc(Nc2c(C#N)cnc3cc(OCCCN4CCN(C)CC4)c(OC)cc23)c(Cl)cc1Cl [BOSUTINIB] | – | 94.67 | 0.73 | -0.43 | 101.85 | 108.17 | 1.05 | 88.31 | -1.63 | –
O=C(NOCC1CC1)c1ccc(F)c(F)c1Nc1ccc(I)cc1Cl [CI 1040, reference compound] | 50.33 | 42.65 | -4.01 | -4.67 | 46.49 | 103.28 | 0.42 | 85.93 | -1.97 | Z-score (LCA primary screening) ([1]; 30 µM, 384-well, average of primary screening (n = 2), vs on-plate 0.3% DMSO): −4.34; IMin (% Luminescence) ([1]; antagonists, Clone V cells, 384-well, normalized to DMSO): 46.49 % Luminescence; IC50 ([1]; estimated, 8-point dose response 0.25-30 µM, n = 4 per concentration, library compounds, read-out: IC50): 14.8 µM
CO[C@H]1C(=O)[C@]2(C)[C@@H](OC)C[C@H]3OC[C@@]3(OC(C)=O)[C@H]2[C@H](OC(=O)c2ccccc2)[C@]2(O)C[C@H](OC(=O)[C@H](O)[C@@H](NC(=O)OC(C)(C)C)c3ccccc3)C(C)=C1C2(C)C [Cabazitaxel] | 101.43 | 112.35 | 0.12 | 1.01 | 106.89 | 90.38 | -1.23 | 82.13 | -2.50 | –
Nc1nc(Cl)nc2c1ncn2[C@H]1C[C@H](O)[C@@H](CO)O1 [Cladribine] | – | – | – | 3.04 | – | 98.25 | -0.22 | 83.86 | -2.26 | –
C[C@@H](Oc1cc(-c2cnn(C3CCNCC3)c2)cnc1N)c1c(Cl)ccc(F)c1Cl [PF-2341066] | 59.03 | 48.89 | -3.31 | -4.16 | 53.96 | – | – | 82.92 | -2.39 | –
Bleomycin sulfate | 125.34 | 143.56 | 2.05 | 3.54 | 134.45 | 94.27 | -0.73 | – | – | Toxicity Assay % Fluor (Clone V cells [4]): 80.17%; Toxicity Assay Z-score (Clone V cells [4]): -2.77
DNA-PK INHIBITOR V | – | – | – | – | – | – | – | – | – | Split Luciferase Assay Z-score Set 1 ([1]; CC_NCI screening): -0.59; Split Luciferase Assay % Lum Set 1 ([1]; CC_NCI screening): 92.73%; Split Luciferase Assay Z-score Set 2 ([1]; CC_NCI screening): -0.01; Split Luciferase Assay %Lum Set 2 ([1]; CC_NCI screening): 99.87%; Split Luciferase Assay %Lum Avg [1]: 96.30%; Luciferase Assay % Lum (full-length luciferase counter-screen) [2, 6]: 82.55%; Luciferase Assay Z-score (full-length luciferase counter-screen) [2, 6]: -2.23; Toxicity Assay % Fluor (CTB cell viability fluorescence) (Clone V cells [4]): 115.08%; Toxicity Assay Z-score (CTB cell viability) (Clone V cells [4]): 2.11
LE 135 | 44.90 | 74.90 | -4.45 | -2.04 | 59.90 | 97.72 | -0.29 | – | – | Toxicity Assay % Fluor (Clone V cells [4]): 98.37%; Toxicity Assay Z-score (Clone V cells [4]): -0.23
TNF-α | – | – | – | – | – | – | – | – | – | mean effect relative to that of triciribine [1]: over 2 fold; signal-background (S:B) ratio ([1]; 1 × 10^4 cells per 384-well): 2.05 ± 0.11 X background signal; signal-background (S:B) ratio ([1]; 2 × 10^4 cells per 384-well): 2.26 ± 0.18 X background signal; signal-background (S:B) ratio ([1]; 3 × 10^4 cells per 384-well): 2.60 ± 0.14 X background signal; signal-background (S:B) ratio ([1]; 4 × 10^4 cells per 384-well): 2.12 ± 0.16 X background signal; % luminescence (mean and SD, normalized to DMSO) ([1]; 50 ng/mL TNF-α, Clone V cells, 96-well plates): 210.8% ± 18.6%; % maximal luminescence, full-length luciferase (normalized mean and SD) ([2]; TNF-α 50 ng/mL, 96-well plates): 105.7% ± 2.5%; cell viability vs untreated cells (CTB fluorescence) (Clone V cells [4]): no significant difference in cell viability
